The results in this text go back to paper PMC8453745, “Human Mass Balance and Metabolite Profiling of [^14C]‐Pamiparib, a Poly (ADP‐Ribose) Polymerase Inhibitor, in Patients With Advanced Cancer” (Clinical Pharmacology in Drug Development, 2021).

This data set can be described thus: mass balance: recovery of radioactivity in urine and feces. It is filed as in vivo, human. An excerpt: Part 1 of the study included a screening phase of up to 28 days prior to drug administration to assess eligibility. Patients were admitted to the clinical research unit (CRU) at Royal Liverpool University Hospital (Liverpool, UK)/Clatterbridge Cancer Centre NHS Foundation Trust (Bebington, Wirral, UK) on day −1 and received a single dose of 60‐mg/100 μCi [^14C]‐pamiparib orally the morning of day 1. Patients remained in the CRU until completion of assessments on day 7, when discharge criteria of ≈90% of the radioactive dose being recovered or <1% of the radioactive dose being recovered in urine and feces for 2 consecutive 24‐hour collection intervals were met. If discharge criteria were not met by day 7, patients collected 24‐hour excreta samples up to day 14 on an outpatient basis. Part 2 of the study, evaluating the safety/tolerability and antitumor activity of 60 mg twice‐daily pamiparib in patients with advanced and/or metastatic solid tumors, is ongoing and is not included in this report.
Total radioactivity concentrations of [^14C]‐pamiparib in whole blood, plasma, urine, and feces were determined by liquid scintillation counting (LSC). Radioactivity in each sample was measured for 5 minutes using a Packard Tri‐Carb liquid scintillation counter model 2100TR, 2900TR, or 3100TR (Canberra Packard, Pangbourne, Berks, Australia) with the facilities for computing quench‐corrected disintegrations per minute. Metabolite identification in plasma, urine, and feces was conducted by LC‐MS. Quantitation of the metabolites present in plasma, urine, and feces was based on the profiles of radioactivity. The limit of quantitation for radioactivity in plasma, urine, and feces was set at 1% of each chromatographic analysis (run) and 10 counts per minute (cpm) peak height; therefore, radioactive peaks that were <1% of the total run or <10 cpm peak height were reported as not detected. […]
Each aliquot of urine (about 1 mL, weighed) was added directly to liquid scintillant prior to LSC. […] The radioactivity in each pooled sample was determined by LSC. […]

With `C[C@]12CCCN1CC1=NNC(=O)c3cc(F)cc4[nH]c2c1c34` [Pamiparib], the “administered radioactivity excreted in the feces” value (192‐hour collection period) is 26.9% ± 6.8%. Also, where the note is “192‐hour collection period, mean ± SD, n = 4”, the “overall mean total recovery of radioactivity in urine and feces” value is on record as 84.7% ± 3.5%. The “mass balance achieved for all 4 subjects” value (individual subjects) is recorded as “higher than 80%”.
